Measurements: paper PMC5739597, “Discovery and evaluation of triple inhibitors of VEGFR-2, TIE-2 and EphB4 as anti-angiogenic and anti-cancer agents” (Oncotarget, 2017)
“And” between values parts separate entries of the source, which are not always exact repeats. Equal values may be shown once.

Experiments:
VEGFR-2 [1] = target: T1, VEGFR-2 (Homo sapiens, UniProt P35968); test: ADP-Glo in vitro RTK inhibition assay, VEGFR-2; type: biochemical; conditions: ATP 50 μM
Experimental: (§1) In order to validate the direct effect of title compounds on VEGFR-2, Tie-2, and EphB4 kinases, we performed in vitro assay using the ADP-Glo Kinase Assay Kit (Promega, Wisconsin, USA).
(§2) The kinase assay was performed in a reaction mixture of final volume of 10 μL. […] The plate was incubated at 30°C for 1 h. After the plate was cooled at room temperature for 5 min, 5 μL of ADP-Glo reagent was added into each well to stop the reaction and consume the remaining […] within 40 min. At the end, 10 μL of kinase detection reagent was added into the well and incubated for 30 min to produce a luminescence signal. […] The assay plate was incubated at 30°C for 4 h. After the plate was cooled at room temperature for 5 min, 5 μL of ADP-Glo reagent was added into each well to stop the reaction and consume the remaining […] within 1 h. At the end, 10 μL of kinase detection reagent was added into each well and incubated for 30 min to produce a luminescence signal. The luminescence was read by VICTOR-X multi-label plate reader.

TIE-2 = TIE-2 (Homo sapiens, UniProt Q02763); test: ADP-Glo in vitro RTK inhibition assay, TIE-2; type: biochemical; conditions: ATP 50 μM
Chain of TIE-2 (Q02763 23-1124): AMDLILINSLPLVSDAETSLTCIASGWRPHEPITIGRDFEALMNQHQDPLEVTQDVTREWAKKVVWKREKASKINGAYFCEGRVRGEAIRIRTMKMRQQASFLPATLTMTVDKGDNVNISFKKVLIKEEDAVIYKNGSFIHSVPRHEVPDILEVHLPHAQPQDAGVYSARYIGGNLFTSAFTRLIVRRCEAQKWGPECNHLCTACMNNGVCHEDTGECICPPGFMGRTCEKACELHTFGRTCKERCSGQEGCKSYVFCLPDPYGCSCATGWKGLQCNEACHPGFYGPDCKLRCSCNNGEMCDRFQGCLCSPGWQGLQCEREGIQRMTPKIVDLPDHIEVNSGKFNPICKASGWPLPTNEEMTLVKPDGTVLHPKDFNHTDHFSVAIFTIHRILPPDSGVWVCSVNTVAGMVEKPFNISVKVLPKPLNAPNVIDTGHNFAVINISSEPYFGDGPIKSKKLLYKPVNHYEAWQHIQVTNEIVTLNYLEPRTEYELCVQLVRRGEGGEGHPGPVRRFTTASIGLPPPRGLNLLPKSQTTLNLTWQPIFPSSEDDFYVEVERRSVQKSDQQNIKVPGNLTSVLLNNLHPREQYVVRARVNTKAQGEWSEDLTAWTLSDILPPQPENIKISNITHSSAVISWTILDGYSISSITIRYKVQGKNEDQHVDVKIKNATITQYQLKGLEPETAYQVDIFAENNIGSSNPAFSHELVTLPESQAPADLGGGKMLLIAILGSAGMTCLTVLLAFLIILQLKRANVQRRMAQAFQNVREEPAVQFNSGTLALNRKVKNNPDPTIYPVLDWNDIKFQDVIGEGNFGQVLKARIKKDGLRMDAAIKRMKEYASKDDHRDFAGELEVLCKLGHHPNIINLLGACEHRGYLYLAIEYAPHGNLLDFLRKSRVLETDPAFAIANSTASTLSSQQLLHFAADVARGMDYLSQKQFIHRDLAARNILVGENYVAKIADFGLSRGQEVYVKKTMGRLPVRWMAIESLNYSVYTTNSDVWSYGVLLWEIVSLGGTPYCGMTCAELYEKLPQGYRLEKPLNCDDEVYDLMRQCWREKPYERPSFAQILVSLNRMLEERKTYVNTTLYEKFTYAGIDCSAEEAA
Experimental: as §1, §2

EphB4 = target: T2, EphB4 (Homo sapiens, UniProt P54760); test: ADP-Glo in vitro RTK inhibition assay, EphB4; type: biochemical; conditions: ATP 50 μM
T2 sequence (P54760 16-987): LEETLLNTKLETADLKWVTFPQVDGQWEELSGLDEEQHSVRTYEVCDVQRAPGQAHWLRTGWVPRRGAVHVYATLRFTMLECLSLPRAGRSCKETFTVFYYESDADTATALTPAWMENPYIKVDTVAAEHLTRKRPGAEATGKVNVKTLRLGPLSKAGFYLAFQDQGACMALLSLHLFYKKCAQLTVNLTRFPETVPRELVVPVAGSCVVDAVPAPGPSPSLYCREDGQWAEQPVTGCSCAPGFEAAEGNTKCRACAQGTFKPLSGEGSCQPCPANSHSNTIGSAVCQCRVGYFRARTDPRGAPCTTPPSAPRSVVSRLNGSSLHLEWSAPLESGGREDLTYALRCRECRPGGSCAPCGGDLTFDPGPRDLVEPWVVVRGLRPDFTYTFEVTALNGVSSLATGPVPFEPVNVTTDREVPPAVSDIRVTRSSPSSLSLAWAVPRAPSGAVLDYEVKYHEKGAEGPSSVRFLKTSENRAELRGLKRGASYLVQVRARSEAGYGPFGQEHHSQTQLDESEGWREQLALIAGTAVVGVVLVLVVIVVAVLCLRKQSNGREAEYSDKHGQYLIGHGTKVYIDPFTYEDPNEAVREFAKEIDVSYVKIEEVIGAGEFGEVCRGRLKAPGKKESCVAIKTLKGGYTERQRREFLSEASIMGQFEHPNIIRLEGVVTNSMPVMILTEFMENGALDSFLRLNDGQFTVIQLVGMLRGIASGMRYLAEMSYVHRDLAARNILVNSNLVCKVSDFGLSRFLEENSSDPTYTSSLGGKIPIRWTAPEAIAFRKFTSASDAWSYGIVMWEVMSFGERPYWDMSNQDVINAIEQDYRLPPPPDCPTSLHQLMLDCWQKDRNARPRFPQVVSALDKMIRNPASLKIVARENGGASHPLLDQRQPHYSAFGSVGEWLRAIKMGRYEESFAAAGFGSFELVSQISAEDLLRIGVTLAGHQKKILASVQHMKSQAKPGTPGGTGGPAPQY
Experimental: as §1, §2

EA.hy926 = test: Human endothelial cell (EA.hy926) viability assay, CCK-8; type: cell-based; conditions: Homo sapiens, EA.hy 926, 24 h, CCK-8, 24 h treatment; read-out: Inhibition of human endothelial cell viability, EA.hy926 IC50
Experimental: In order to determine the anti-angiogenic effect of these multi-target inhibitors, we evaluated their effect on HECs (EA.hy926) viability using cell counting kit-8 (CCK-8) method.
The viability of HECs (EA.hy926) was assessed using the cell counting kit-8 (CCK-8, Sigma, USA) assay according to the manufacturer's instruction. […] After incubation at 37°C for 48 h, the cells were treated with tested compounds at various concentrations for 24 h. Subsequently, premixed CCK-8 and medium (10 μL) were added into the 96-well plates to monitor cell viability and were incubated at 37°C for 2 h. The number of viable cells was assessed by measurement of absorbance at 450 nm by a microplate reader. The viability rate was calculated as experimental OD value/control OD value.

MCF-7 xenograft = test: In vivo MCF-7 xenograft mice model; conditions: ig, 40 mg/kg daily, 21 days
Experimental: Six-week old female BALB/c mice were purchased from Shanghai Laboratory Animal center of the Chinese Academy of Sciences and housed under aseptic and ventilated condition. The mice were inoculated by subcutaneous injection with MCF-7 cancer cells suspended in 5% saline. Tumor volume and weight were measured on alternate days. Body weights were monitored as an indicator of toxicity. […] Treatment started from the next day and continued for 21 days. All mice were killed at the end of the experiment, and subcutaneous tumors were removed and weighted.

VEGFR-2 [2] = target: T1, VEGFR-2; test: VEGFR-2/cell membrane chromatography (CMC) affinity evaluation; type: binding; conditions: flow rate 0.6 mL/min, 37°C, 5 mM PBS pH 7.4, 270 nm
Experimental: In previous studies, artificial cultures highly expressing VEGFR-2 on HEK293 cell lines were constructed. […] Chromatographic conditions: 10 mm×2.0 mm; flow rate0.6 mL/min; column temperature 37°C; mobile phase 5 mM PBS, pH 7.4; detection wavelength 270 nm.
The VEGFR-2 cell membrane stationary phase was prepared as previous reported. Aqueous ammonium acetate buffer solution (pH 7.4, 5 mM) was pumped at a flow rate of 0.2 mL/min as the mobile phase after VEGFR-2/CMC column was loaded onto the chromatography system at the temperature of 37°C. […] The mobile phase was 5.0 mM phosphate burred saline with a 0.6 mL/min flow rate at a column temperature of 37°C. The detected wavelength was 270 nm. The test compound was injected into the VEGFR-2/CMC column and their retention characteristics were identified to evaluate their affinity with VEGFR-2.

T1 sequence (P35968 20-1356): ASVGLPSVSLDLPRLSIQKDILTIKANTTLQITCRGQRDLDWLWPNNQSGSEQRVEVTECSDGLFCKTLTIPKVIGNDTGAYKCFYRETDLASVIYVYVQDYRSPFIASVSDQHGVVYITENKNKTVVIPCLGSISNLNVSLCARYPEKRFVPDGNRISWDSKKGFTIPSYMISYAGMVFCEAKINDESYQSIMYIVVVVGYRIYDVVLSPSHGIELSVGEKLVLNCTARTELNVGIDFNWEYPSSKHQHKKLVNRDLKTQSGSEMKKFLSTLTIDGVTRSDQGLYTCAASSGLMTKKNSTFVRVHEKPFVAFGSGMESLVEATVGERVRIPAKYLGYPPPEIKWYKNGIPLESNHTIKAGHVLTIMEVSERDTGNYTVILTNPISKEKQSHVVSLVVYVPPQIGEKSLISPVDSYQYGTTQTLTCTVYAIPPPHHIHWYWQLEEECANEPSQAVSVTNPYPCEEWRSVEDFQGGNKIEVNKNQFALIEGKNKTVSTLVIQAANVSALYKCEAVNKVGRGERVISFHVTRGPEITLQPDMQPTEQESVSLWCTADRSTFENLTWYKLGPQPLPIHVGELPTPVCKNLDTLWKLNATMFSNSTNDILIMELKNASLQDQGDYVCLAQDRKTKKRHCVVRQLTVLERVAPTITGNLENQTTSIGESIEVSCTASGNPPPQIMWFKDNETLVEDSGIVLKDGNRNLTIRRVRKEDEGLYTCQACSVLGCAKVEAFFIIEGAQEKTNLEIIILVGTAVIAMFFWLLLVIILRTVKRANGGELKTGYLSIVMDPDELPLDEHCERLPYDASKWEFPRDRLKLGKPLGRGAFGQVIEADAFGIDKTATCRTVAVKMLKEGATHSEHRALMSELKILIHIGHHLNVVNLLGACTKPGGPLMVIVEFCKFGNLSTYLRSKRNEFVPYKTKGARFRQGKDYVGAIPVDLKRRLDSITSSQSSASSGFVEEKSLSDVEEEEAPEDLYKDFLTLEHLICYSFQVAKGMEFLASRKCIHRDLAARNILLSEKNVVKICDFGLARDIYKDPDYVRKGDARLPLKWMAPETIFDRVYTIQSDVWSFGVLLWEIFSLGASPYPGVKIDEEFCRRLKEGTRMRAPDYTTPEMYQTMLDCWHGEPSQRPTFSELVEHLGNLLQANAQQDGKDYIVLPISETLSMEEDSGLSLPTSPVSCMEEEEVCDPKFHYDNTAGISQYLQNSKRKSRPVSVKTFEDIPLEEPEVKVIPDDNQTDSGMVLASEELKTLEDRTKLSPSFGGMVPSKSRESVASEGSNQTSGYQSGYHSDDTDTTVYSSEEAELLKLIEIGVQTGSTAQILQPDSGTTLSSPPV

IC50 (VEGFR-2 [1]) [nM] | IC50 (TIE-2) [nM] | IC50 (EphB4) [nM] | melting point [°C] | Retention time on VEGFR-2/cell membrane stationary phase column (VEGFR-2 [2]) | SMILES | IC50 (EA.hy926) [nM] | Final body weight (MCF-7 xenograft) [g] | Tumor growth inhibition (MCF-7 xenograft) [%] | Final tumor weight (MCF-7 xenograft; control 0.848±0.5) [g]
194 | 70.5 | > 500 |  |  | O=C(Nc1ccc(-c2ccc3c(=O)[nH]cnc3c2)cc1)Nc1cccc(C(F)(F)F)c1 [QDAU1, 1-(4-(4-oxo-3,4-dihydroquinazolin-7-yl)phenyl)-3-(3-(trifluoromethyl)phenyl)urea] | 57900 |  |  | 
57.9 | 83.9 | > 500 | > 300 |  | O=C(Nc1ccc(-c2ccc3c(=O)[nH]cnc3c2)cc1)Nc1cccc(Cl)c1 [QDAU2, 1-(3-chlorophenyl)-3-(4-(4-oxo-3,4-dihydroquinazolin-7-yl)phenyl)urea] | 66300 |  |  | 
> 500 | 90.7 | 5.64 | > 300 |  | O=C(Nc1ccc(-c2ccc3c(=O)[nH]cnc3c2)cc1)Nc1cccc(F)c1 [QDAU3, 1-(3-fluorophenyl)-3-(4-(4-oxo-3,4-dihydroquinazolin-7-yl)phenyl)ure] | 42600 |  |  | 
6.28 | 101 | > 500 | > 300 |  | O=C(Nc1ccc(F)cc1)Nc1ccc(-c2ccc3c(=O)[nH]cnc3c2)cc1 [QDAU6, 1-(4-fluorophenyl)-3-(4-(4-oxo-3,4-dihydroquinazolin-7-yl)phenyl)urea] | 255000 |  |  | 
> 500 | 258 | > 500 | > 300 |  | O=C(Nc1ccc(OC(F)(F)F)cc1)Nc1ccc(-c2ccc3c(=O)[nH]cnc3c2)cc1 [QDAU7, 1-(4-(4-oxo-3,4-dihydroquinazolin-7-yl)phenyl)-3-(4-(trifluoromethoxy)phenyl)urea] | 68500 |  |  | 
41.5 | > 500 | > 500 | > 300 |  | CC(C)c1cccc(NC(=O)Nc2ccc(-c3ccc4c(=O)[nH]cnc4c3)cc2)c1 [QDAU8, 1-(3-isopropylphenyl)-3-(4-(4-oxo-3,4-dihydroquinazolin-7-yl)phenyl)urea] | 76200 |  |  | 
15.8 | 19.6 | 24.4 | > 300 |  | O=C(Nc1ccc(-c2ccc3c(=O)[nH]cnc3c2)cc1)Nc1ccc(Cl)c(C(F)(F)F)c1 [QDAU9, 1-(4-chloro-3-(trifluoromethyl)phenyl)-3-(4-(4-oxo-3,4-dihydroquinazolin-7-yl)phenyl)urea] | 13000 |  |  | 
50.7 | 52.7 | > 500 | > 300 |  | O=C(Nc1ccc(-c2ccc3c(=O)[nH]cnc3c2)cc1)Nc1ccc(C(F)(F)F)cc1 [QDAU10, 1-(4-(4-oxo-3,4-dihydroquinazolin-7-yl)phenyl)-3-(4-(trifluoromethyl)phenyl)urea] | 125000 |  |  | 
 |  |  |  | 11 min and 10.6 min | CNC(=O)c1cc(Oc2ccc(NC(=O)Nc3ccc(Cl)c(C(F)(F)F)c3)c(F)c2)ccn1 [regorafenib, reference compound] |  |  |  | 

Continued, compound first:

SMILES | IC50 (VEGFR-2 [1]) [nM] | IC50 (TIE-2) [nM] | IC50 (EphB4) [nM] | melting point [°C] | Retention time on VEGFR-2/cell membrane stationary phase column (VEGFR-2 [2]) | IC50 (EA.hy926) [nM] | Final body weight (MCF-7 xenograft) [g] | Tumor growth inhibition (MCF-7 xenograft) [%] | Final tumor weight (MCF-7 xenograft; control 0.848±0.5) [g]
FC(F)(F)c1cc(Br)cc(NC(=S)Nc2ccc(-c3cccnc3)cc2)c1 [DATU1, N-[3-bromo-5-(trifluoromethyl)phenyl]-N’-(4-pyridin-3-ylphenyl)thiourea] | 20.6 | 25.7 | 20 | 197 to 199 |  |  |  |  | 
FC(F)(F)Oc1cc(Br)ccc1NC(=S)Nc1ccc(-c2cccnc2)cc1 [DATU2, N-[4-bromo-2-(trifluoromethoxy)phenyl]-N’-(4-pyridin-3-ylphenyl)thiourea] | > 500 | 64.2 | > 500 | 144 to 145 |  | 89900 |  |  | 
FC(F)(F)Oc1ccc(NC(=S)Nc2ccc(-c3cccnc3)cc2)c(Br)c1 [DATU3, N-[2-bromo-4-(trifluoromethoxy)phenyl]-N’-(4-pyridin-3-ylphenyl)thiourea] | > 500 | 20 | 21.8 | 162 to 163 |  | 122000 |  |  | 
FC(F)(F)Oc1ccc(Br)cc1NC(=S)Nc1ccc(-c2cccnc2)cc1 [DATU4, N-[5-bromo-2-(trifluoromethoxy)phenyl]-N’-(4-pyridin-3-ylphenyl)thiourea] | > 500 | > 500 | 18.7 | 154 to 155 |  | 44800 |  |  | 
FC(F)(F)Oc1ccc(Br)c(NC(=S)Nc2ccc(-c3cccnc3)cc2)c1 [DATU5, N-[2-bromo-5-(trifluoromethoxy)phenyl]-N’-(4-pyridin-3-ylphenyl)thiourea] | > 500 | > 500 | 54.2 | 125 to 126 |  | 246000 |  |  | 
S=C(Nc1ccc(-c2cccnc2)cc1)Nc1ccc(Cl)cc1Cl [DATU6, N-(2,4-dichlorophenyl)-N’-(4-pyridin-3-ylphenyl)thiourea] | 23.5 | 66.5 | 3.86 | 156 to 157 |  | 24400 |  |  | 
Fc1ccc(NC(=S)Nc2ccc(-c3cccnc3)cc2)cc1F [DATU7, N-(3,4-difluorophenyl)-N’-(4-pyridin-3-ylphenyl)thiourea] | 45.2 | 48.4 | 10 | 139 to 140 |  | 96400 |  |  | 
S=C(Nc1ccc(-c2cccnc2)cc1)Nc1ccc(Cl)c(Cl)c1 [DATU8, N-(3,4-dichlorophenyl)-N’-(4-pyridin-3-ylphenyl)thiourea] | 354 | 9.4 | > 500 | 173 to 175 |  | 102000 |  |  | 
FC(F)(F)c1cc(NC(=S)Nc2ccc(-c3cccnc3)cc2)cc(C(F)(F)F)c1 [DATU9, N-[3,5-bis(trifluoromethyl)phenyl]-N’-(4-pyridin-3-ylphenyl)thiourea] | > 500 | > 500 | > 500 | 157 to 158 |  | 166000 |  |  | 
S=C(Nc1ccc(-c2cccnc2)cc1)Nc1ccc2c(c1)OCO2 [DATU10, N-1,3-benzodioxol-5-yl-N’-(4-pyridin-3-ylphenyl)thiourea] | 20.4 | > 500 | > 500 | 147 to 148 |  | 90600 |  |  | 
CNC(=O)c1cc(Oc2ccc(NC(=O)Nc3ccc(Cl)c(C(F)(F)F)c3)cc2)ccn1 [Sorafenib, sorafenib, reference compound] |  |  |  |  |  |  | 16.8 ± 0.9 | 53 | 0.398 ± 0.8
